Assay results reported in patent US20240148425A1, “COSMETIC COMPOSITION INTENDED FOR THE TREATMENT OF SKIN HYPERPIGMENTATION AND TREATMENT METHOD USING SAID COMPOSITION” (priority 2021, published 2024).

Assays:
[1] = system: melanocytes
Experimental: By way of example, when the viability of the melanocytes is compared between the application of a dose of atomized cryogenic gas making it possible to reach a target temperature of −10° C. (sequence referenced EC-10) on the epidermis from its normal starting temperature (34° C.) in an environment at room temperature (23° C.), and the application of a dose making it possible to reach a temperature of 0° C.
Therefore, experiments (cell cultures-in vitro) were conducted in the context of the invention to determine the effects of different temperatures (+10, +5, 0, −5, −10, −15 and 16° C.) on the mortality of the melanocytes. […] A control group of cells was tested at +23° C. After 24 h of treatment, the cell mortality was quantified by assaying the expression of the proteins (see FIG. 1).

[2] = system: IL-1β marker in keratinocytes; assay: IL-1β irritation marker in keratinocytes after cryogenic gas sequences; format: cell-based; details: +14° C. with 4 successive oscillations vs subzero dose (EC16, −16° C.), same level of keratinocyte viability
Source text: Finally, on the other constituent cells of the epidermis (keratinocytes), experiments have shown that oscillations within an above-zero temperature range caused a lesser effect on certain irritation markers compared to the application of a single cryogenic gas within a subzero temperature range while causing an identical reduction in the viability of the keratinocytes (see FIG. 3). […] Likewise, since the irritation is directly related to the mortality induced by keratinocytes, it could have been thought that for an identical reduction in viability, the irritation would be identical.
FIG. 3 is a graph showing the variation over time of the (IL-1β) marker of the irritation for keratinocytes subjected to two sequences making it possible to achieve the same level of viability, a sequence (EC16) located in a subzero temperature range (−16° C.) and the other sequence (EC14) in an above-zero temperature range (+14° C.).
The development of the invention has given rise to numerous experiments relating to the optimization of atomization sequences. These sequences were tested on cell culture models in order to determine, in particular, their incidence on the cell viability of the melanocytes and keratinocytes. The main markers of irritation were also measured.

[3] = system: keratinocytes; assay: viability of keratinocytes by protein assay; format: cell-based; details: certain temperatures, especially +05° C.; patent attributes it to quiescence bias
Source text: Other tests conducted within the scope of the development of the invention have shown that an experiment bias existed in the measurement of the viability of the keratinocytes by protein assay.

[4] = system: actinic lentigines on the back of hands; details: cooling cycle of 3 to 5 seconds; biopsies 3 weeks after the treatment; cited from earlier work
[5] = system: skin pigmentation; details: brief 5-second cooling by atomizing liquid nitrogen at −196° C., margin 1 to 5 mm beyond the wound; cited from earlier work

Structure (SMILES)	decrease of viability of the melanocytes relative to the control group [1] [%]	reduction of the viability of the melanocytes [1]	mortality rate of melanocytes versus control group ([1]; EC+10 sequence (+10° C.), control at +23° C.)	viability of the melanocytes, sequence EC-10 (−10° C.) compared with EC00 (0° C.) ([1]; EC-10 vs EC00, start 34° C., room temperature 23° C.)	irritant effect (IL-1β marker) [2]	viability of the keratinocytes by protein assay [3]	skin pigmentation in biopsies [4]	pigment change of skin [5]
CC(F)F [cryogenic gas, 1,1-difluoroethane]	40	about 40%	very different from that obtained for the control group	remains the same	less than that observed with a dose making it possible to achieve subzero temperatures	a reduction in the viability of the keratinocytes		
N#N [liquid nitrogen]							reduces skin pigmentation	hypopigmentation persists
